In patent US7034208B1, “Ahas inhibiting herbicide resistant wheat and method for selection thereof” (BASF Aktiengellschaft, priority 1991, dated 2006):

Tests used:
[1] = tested on: F2 of intercrosses between wheat selections FS1-FS4; test: Genetic Condition Studies Experiment 5, allelism (Table 3); assay type: in vivo; conditions: 200 g/ha, after treatment
From the text: Experiment 5: Crosses and reciprocal crosses are made between the four mutant wheat selections. The F1 seed from these crosses is planted and the plants allowed to self. The F2 seed is harvested and used in this experiment to determine allelism of the four selections. Whole-flats are filled with Metro Mix 350™ and are sown with 100 seeds per cross (four rows with 25 seeds/row). In addition a row of susceptible Fidel is sown in each flat. Three sources from each cross are used. When the seedlings reach the Z12 stage, the flats are sprayed with PURSUIT™ at 200 g/ha. The PURSUIT™ solution is applied as previously described. […]

[2] = tested on: wheat embryos (M3 of FS1-FS4, Fidel); test: M3 Plant Screen: In vitro (excised embryos cultured on herbicide medium); assay type: cell-based
Protocol: M3 plants from the four initial plant selections (labelled FS1, FS2, FS3 and FS4) are screened for PURSUIT™ resistance in vitro. M3 seeds from each mature infloresence of these initial M2 mutants are disinfested in 70% EtOH for 30 seconds followed by disinfestation in 50% solution containing 2.625% sodium hypochlorite (as described above) for 20 minutes under vaccuum with gentle agitation provided by a stir plate. The seeds are soaked in sterile distilled water in 100×5 mm sterile plastic petri dishes for 20-24 hours after which the embryos are excised and cultured onto medium containing either 10^−4, 10^−5, or 10^−6 M PURSUIT™. […] Embryo ratings are taken at either two and one-half or three weeks after culture initiation.

[3] = Control 2 = Fidel on medium with herbicide, concentration 10^−5
[4] = Control 2 = Fidel on medium with herbicide, concentration 10^−6
[5] = Control M3 = M3 seed on medium with herbicide (footnote), section 10^−5
[6] = Control M3 = M3 seed on medium with herbicide (footnote), section 10^−6
[7] = FS1 M3 embryos, concentration 10^−5
[8] = FS1 M3 embryos, concentration 10^−6
[9] = FS2 M3 embryos, concentration 10^−5
[10] = FS2 M3 embryos, concentration 10^−6
[11] = FS3 M3 embryos, concentration 10^−5
[12] = FS3 M3 embryos, concentration 10^−6
[13] = FS4 M3 embryos, concentration 10^−5
[14] = FS4 M3 embryos, concentration 10^−6

CCc1cnc(C2=NC(C)(C(C)C)C(=O)N2)c(C(=O)O)c1 (stereo not drawn) [PURSUIT, 5-ethyl-2-(4-isopropyl-4-methyl-5-oxo-2-imidazolin-2-yl)-nicotinic acid]
Resist: number of plants resistant ([1]; F2 source (FS1/FS2)X-1): 71
Suscept: number of plants susceptible ([1]; F2 source (FS1/FS2)X-1): 1
Resist: number of plants resistant ([1]; F2 source (FS1/FS2)X-2): 85
Suscept: number of plants susceptible ([1]; F2 source (FS1/FS2)X-2): 2
Resist: number of plants resistant ([1]; F2 source (FS1/FS2)X-3): 74
Suscept: number of plants susceptible ([1]; F2 source (FS1/FS2)X-3): 1
Resist: number of plants resistant ([1]; F2 source (FS1/FS3)X-1): 82
Suscept: number of plants susceptible ([1]; F2 source (FS1/FS3)X-1): 0
Resist: number of plants resistant ([1]; F2 source (FS1/FS3)X-2): 92
Suscept: number of plants susceptible ([1]; F2 source (FS1/FS3)X-2): 0
Resist: number of plants resistant ([1]; F2 source (FS1/FS3)X-3): 93
Suscept: number of plants susceptible ([1]; F2 source (FS1/FS3)X-3): 0
Resist: number of plants resistant ([1]; F2 source (FS1/FS4)X-1): 96
Suscept: number of plants susceptible ([1]; F2 source (FS1/FS4)X-1): 0
Resist: number of plants resistant ([1]; F2 source (FS1/FS4)X-2): 90
Suscept: number of plants susceptible ([1]; F2 source (FS1/FS4)X-2): 0
Resist: number of plants resistant ([1]; F2 source (FS1/FS4)X-3): 93
Suscept: number of plants susceptible ([1]; F2 source (FS1/FS4)X-3): 2
Resist: number of plants resistant ([1]; F2 source (FS2/FS1)X-1): 95
Suscept: number of plants susceptible ([1]; F2 source (FS2/FS1)X-1): 0
Resist: number of plants resistant ([1]; F2 source (FS2/FS1)X-2): 91
Suscept: number of plants susceptible ([1]; F2 source (FS2/FS1)X-2): 0
Resist: number of plants resistant ([1]; F2 source (FS2/FS1)X-3): 97
Suscept: number of plants susceptible ([1]; F2 source (FS2/FS1)X-3): 0
Resist: number of plants resistant ([1]; F2 source (FS2/FS3)X-1): 99
Suscept: number of plants susceptible ([1]; F2 source (FS2/FS3)X-1): 0
Resist: number of plants resistant ([1]; F2 source (FS2/FS3)X-2): 87
Suscept: number of plants susceptible ([1]; F2 source (FS2/FS3)X-2): 1
Resist: number of plants resistant ([1]; F2 source (FS2/FS3)X-3): 92
Suscept: number of plants susceptible ([1]; F2 source (FS2/FS3)X-3): 0
Resist: number of plants resistant ([1]; F2 source (FS2/FS4)X-1): 102
Suscept: number of plants susceptible ([1]; F2 source (FS2/FS4)X-1): 0
Resist: number of plants resistant ([1]; F2 source (FS2/FS4)X-2): 97
Suscept: number of plants susceptible ([1]; F2 source (FS2/FS4)X-2): 0
Resist: number of plants resistant ([1]; F2 source (FS2/FS4)X-3): 97
Suscept: number of plants susceptible ([1]; F2 source (FS2/FS4)X-3): 1
Resist: number of plants resistant ([1]; F2 source (FS3/FS1)X-2): 95
Suscept: number of plants susceptible ([1]; F2 source (FS3/FS1)X-2): 0
Resist: number of plants resistant ([1]; F2 source (FS3/FS1)X-3): 97
Suscept: number of plants susceptible ([1]; F2 source (FS3/FS1)X-3): 0
Resist: number of plants resistant ([1]; F2 source (FS3/FS1)X-5): 94
Suscept: number of plants susceptible ([1]; F2 source (FS3/FS1)X-5): 1
Resist: number of plants resistant ([1]; F2 source (FS3/FS2)X-1): 96
Suscept: number of plants susceptible ([1]; F2 source (FS3/FS2)X-1): 0
Resist: number of plants resistant ([1]; F2 source (FS3/FS2)X-2): 94
Suscept: number of plants susceptible ([1]; F2 source (FS3/FS2)X-2): 0
Resist: number of plants resistant ([1]; F2 source (FS3/FS2)X-3): 96
Suscept: number of plants susceptible ([1]; F2 source (FS3/FS2)X-3): 0
Resist: number of plants resistant ([1]; F2 source (FS3/FS4)X-1): 98
Suscept: number of plants susceptible ([1]; F2 source (FS3/FS4)X-1): 0
Resist: number of plants resistant ([1]; F2 source (FS3/FS4)X-2): 96
Suscept: number of plants susceptible ([1]; F2 source (FS3/FS4)X-2): 0
Resist: number of plants resistant ([1]; F2 source (FS3/FS4)X-3): 96
Suscept: number of plants susceptible ([1]; F2 source (FS3/FS4)X-3): 0
Resist: number of plants resistant ([1]; F2 source (FS4/FS1)X-1): 93
Suscept: number of plants susceptible ([1]; F2 source (FS4/FS1)X-1): 1
Resist: number of plants resistant ([1]; F2 source (FS4/FS1)X-2): 91
Suscept: number of plants susceptible ([1]; F2 source (FS4/FS1)X-2): 0
Resist: number of plants resistant ([1]; F2 source (FS4/FS1)X-3): 94
Suscept: number of plants susceptible ([1]; F2 source (FS4/FS1)X-3): 1
Resist: number of plants resistant ([1]; F2 source (FS4/FS2)X-1): 94
Suscept: number of plants susceptible ([1]; F2 source (FS4/FS2)X-1): 0
Resist: number of plants resistant ([1]; F2 source (FS4/FS2)X-2): 95
Suscept: number of plants susceptible ([1]; F2 source (FS4/FS2)X-2): 1
Resist: number of plants resistant ([1]; F2 source (FS4/FS2)X-3): 95
Suscept: number of plants susceptible ([1]; F2 source (FS4/FS2)X-3): 0
Resist: number of plants resistant ([1]; F2 source (FS4/FS3)X-1): 96
Suscept: number of plants susceptible ([1]; F2 source (FS4/FS3)X-1): 0
Resist: number of plants resistant ([1]; F2 source (FS4/FS3)X-2): 100
Suscept: number of plants susceptible ([1]; F2 source (FS4/FS3)X-2): 0
Resist: number of plants resistant ([1]; F2 source (FS4/FS3)X-3): 94
Suscept: number of plants susceptible ([1]; F2 source (FS4/FS3)X-3): 0
Resist: number of plants resistant ([1]; Total of (FS1/FS2) sources): 230
Suscept: number of plants susceptible ([1]; Total of (FS1/FS2) sources): 4
Resist: number of plants resistant ([1]; Total of (FS1/FS3) sources): 267
Suscept: number of plants susceptible ([1]; Total of (FS1/FS3) sources): 0
Resist: number of plants resistant ([1]; Total of (FS1/FS4) sources): 279
Suscept: number of plants susceptible ([1]; Total of (FS1/FS4) sources): 2
Resist: number of plants resistant ([1]; Total of (FS2/FS1) sources): 283
Suscept: number of plants susceptible ([1]; Total of (FS2/FS1) sources): 0
Resist: number of plants resistant ([1]; Total of (FS2/FS3) sources): 278
Suscept: number of plants susceptible ([1]; Total of (FS2/FS3) sources): 1
Resist: number of plants resistant ([1]; Total of (FS2/FS4) sources): 296
Suscept: number of plants susceptible ([1]; Total of (FS2/FS4) sources): 1
Resist: number of plants resistant ([1]; Total of (FS3/FS1) sources): 286
Suscept: number of plants susceptible ([1]; Total of (FS3/FS1) sources): 1
Resist: number of plants resistant ([1]; Total of (FS3/FS2) sources): 286
Suscept: number of plants susceptible ([1]; Total of (FS3/FS2) sources): 0
Resist: number of plants resistant ([1]; Total of (FS3/FS4) sources): 290
Suscept: number of plants susceptible ([1]; Total of (FS3/FS4) sources): 0
Resist: number of plants resistant ([1]; Total of (FS4/FS1) sources): 278
Suscept: number of plants susceptible ([1]; Total of (FS4/FS1) sources): 2
Resist: number of plants resistant ([1]; Total of (FS4/FS2) sources): 284
Suscept: number of plants susceptible ([1]; Total of (FS4/FS2) sources): 1
Resist: number of plants resistant ([1]; Total of (FS4/FS3) sources): 290
Suscept: number of plants susceptible ([1]; Total of (FS4/FS3) sources): 0
Embryo Rating D (Damaged), number of embryos [2, 3]: 0
Embryo Rating S (Susceptible), number of embryos [2, 3]: 30
Embryo Rating T (Tolerant), number of embryos [2, 3]: 0
Embryo Rating D (Damaged), number of embryos [2, 4]: 0
Embryo Rating S (Susceptible), number of embryos [2, 4]: 15
Embryo Rating T (Tolerant), number of embryos [2, 4]: 0
Ave. Shoot Height [2, 5]: 14.7 cm
Embryo Rating D (Damaged), number of embryos [2, 5]: 1
Embryo Rating S (Susceptible), number of embryos [2, 5]: 1
Embryo Rating T (Tolerant), number of embryos [2, 5]: 27
Range Shoot Heights [2, 5]: 1-28 cm
Ave. Shoot Height [2, 6]: 14.6 cm
Embryo Rating D (Damaged), number of embryos [2, 6]: 0
Embryo Rating S (Susceptible), number of embryos [2, 6]: 0
Embryo Rating T (Tolerant), number of embryos [2, 6]: 15
Range Shoot Heights [2, 6]: 2-28 cm
Embryo Rating D (Damaged), number of embryos [2, 7]: 16
Embryo Rating S (Susceptible), number of embryos [2, 7]: 42
Embryo Rating T (Tolerant), number of embryos [2, 7]: 21
Range Shoot Heights [2, 7]: 0-1.5 cm
Ave. Shoot Height [2, 8]: 9.1 cm
Embryo Rating D (Damaged), number of embryos [2, 8]: 0
Embryo Rating S (Susceptible), number of embryos [2, 8]: 0
Embryo Rating T (Tolerant), number of embryos [2, 8]: 70
Range Shoot Heights [2, 8]: 1-22 cm
Embryo Rating D (Damaged), number of embryos [2, 9]: 14
Embryo Rating S (Susceptible), number of embryos [2, 9]: 45
Embryo Rating T (Tolerant), number of embryos [2, 9]: 21
Range Shoot Heights [2, 9]: 0-3.5 cm
Ave. Shoot Height [2, 10]: 11.4 cm
Embryo Rating D (Damaged), number of embryos [2, 10]: 1
Embryo Rating S (Susceptible), number of embryos [2, 10]: 0
Embryo Rating T (Tolerant), number of embryos [2, 10]: 64
Range Shoot Heights [2, 10]: 1-23 cm
Embryo Rating D (Damaged), number of embryos [2, 11]: 9
Embryo Rating S (Susceptible), number of embryos [2, 11]: 58
Embryo Rating T (Tolerant), number of embryos [2, 11]: 12
Range Shoot Heights [2, 11]: 0-4.5 cm
Ave. Shoot Height [2, 12]: 5.2 cm
Embryo Rating D (Damaged), number of embryos [2, 12]: 12
Embryo Rating S (Susceptible), number of embryos [2, 12]: 22
Embryo Rating T (Tolerant), number of embryos [2, 12]: 34
Range Shoot Heights [2, 12]: 1-23 cm
Embryo Rating D (Damaged), number of embryos [2, 13]: 15
Embryo Rating S (Susceptible), number of embryos [2, 13]: 31
Embryo Rating T (Tolerant), number of embryos [2, 13]: 16
Range Shoot Heights [2, 13]: 0-3.0 cm
Ave. Shoot Height [2, 14]: 13.4 cm
Embryo Rating D (Damaged), number of embryos [2, 14]: 8
Embryo Rating S (Susceptible), number of embryos [2, 14]: 13
Embryo Rating T (Tolerant), number of embryos [2, 14]: 59
Range Shoot Heights [2, 14]: 1-33 cm
embryos that germinate ([2]; Fidel controls or M3 embryos, medium containing 10^−4 M): None of the embryos
tolerance of embryos ([2]; M3 embryos, 10^−5 M in the medium, still considerable growth inhibition): somewhat tolerant
